By pIC50 is commonly meant the IC50 on a negative log10 scale, so that one unit is a factor of ten.

This note sets out measurements from US9340577B2, “HLA binding motifs and peptides and their uses” (priority 1992, dated 2016).

pIC50: −log10 of the molar value. No end group written: not given here.

Targets include A*0202 (Homo sapiens, UniProt P04439, D140Y/D185E/D98H/E176V/E277Q/G131W/G231S/I119L/I121R/I166T/I218V/L180W/L300P/L318F/N151K/N90K/P208A/P217A/Q67R/Q86G/Q94H/R138H/R169H/T345S); A*0203 (Homo sapiens, UniProt P04439, A173T/D140Y/D185E/D98H/E277Q/G131W/G231S/I119V/I121R/I166T/I218V/L180W/L300P/L318F/N151K/N90K/P208A/P217A/Q86G/Q94H/R138H/R169H/T345S); A*6802 (Homo sapiens, UniProt P04439, A269V/D140Y/D185E/E176V/E277Q/E87N/F33Y/G231S/I121R/I166T/I218V/L180W/L300P/L318F/N151K/P208A/P217A/Q86R/R138H/R169H/S129P/T345S/V36M); HLA-A*0201 (HLA-A2.1) (Homo sapiens, UniProt P04439, D140Y/D185E/D98H/E176V/E277Q/G131W/G231S/I119V/I121R/I166T/I218V/L300P/L318F/N151K/N90K/P208A/P217A/Q86G/Q94H/R138H/R169H/T345S); A*0206 (Homo sapiens, UniProt P04439, D140Y/D185E/D98H/E176V/E277Q/F33Y/G131W/G231S/I119V/I121R/I166T/I218V/L300P/L318F/N151K/N90K/P208A/P217A/Q86G/Q94H/R138H/R169H/T345S).

What all share (test): biochemical
Common to all, as to type: binding

Take TVQDVSLEV [Peptide 1593.55]: the pIC50 at A*0202 was 6.32; against A*0203, 7.25; against A*6802, 7.82.

For MTANPPIPV [Peptide 1539.01], the negative logarithm of the IC50 (pIC50) was 8.14 on A*0202, 8.60 against A*0203, 8.64 against HLA-A*0201 (HLA-A2.1) and 8.70 against A*6802.

For RLENAILFTV [Peptide 1593.60], the pIC50 is 7.62 at A*0202, 6.80 on A*0203 and 4.80 on A*6802.

Consider LLTFWNPPTTV [Peptide 9013.0259], for which the pIC50 was 7.17 on A*0202, 7.24 at A*0203, 6.12 against HLA-A*0201 (HLA-A2.1) and 5.12 against A*6802.

For the compound VLAEAMSKA [Peptide 1539.07], the pIC50 against A*0202 was 8.47; against A*0203, 8.12; at HLA-A*0201 (HLA-A2.1), 7.16; against A*6802, 5.34.

Regarding YIDDYLRNL [Peptide 1578.39], the results for the pIC50 against A*0202, at A*0203 and at A*6802 were 7.57, 6.42 and < 4.70, respectively.

FLGAFKKFL [Peptide 1578.22]: the pIC50 on A*0206 is 4.93; against A*0202, 8.00; against HLA-A*0201 (HLA-A2.1) it was 5.23; on A*6802 it was < 4.70.

As for VLFTCEPEA [Peptide 9013.0089], the pIC50 was 5.34 against A*0206, 7.15 on A*0202, 6.62 against HLA-A*0201 (HLA-A2.1) and < 4.70 at A*6802.

As for RLYVCGIQNSV [Peptide 9013.0335], the pIC50 against A*0202 is 8.20; on A*0203, 7.62; against HLA-A*0201 (HLA-A2.1), 6.77; against A*6802 it was < 4.70.

Take `CC[C@H](C)[C@H](NC(=O)[C@@H](NC(=O)[C@H](CC(C)C)NC(=O)[C@@H](N)CS)[C@@H](C)O)C(=O)N[C@@H](Cc1c[nH]cn1)C(=O)N[C@@H](Cc1ccc(O)cc1)C(=O)N[C@@H](CC(N)=O)C(=O)N[C@@H](Cc1ccc(O)cc1)C(=O)N[C@H](C(=O)O)C(C)C` [Peptide 1323.07]: the pIC50 against A*0202 was 6.67; against A*0203 it was 7.19; at HLA-A*0201 (HLA-A2.1) it was 6.57; at A*6802, 6.19.

As to VQWAYDNDV [Peptide 86.0190], the pIC50 against A*0206 is 6.37; against A*0202 it was 7.05; at HLA-A*0201 (HLA-A2.1), 5.35; against A*6802 it was 5.44.

On to ILNDTGFYT [Peptide 9013.0036], for which the negative-log IC50 (pIC50) on A*0206 is 5.42; on A*0202, 7.85; against HLA-A*0201 (HLA-A2.1), 6.67; on A*6802 it was < 4.70.

Take IQNDTGFYT [Peptide 9013.0034]: the pIC50 at A*0206 was 6.32; against A*0202, 5.43; against HLA-A*0201 (HLA-A2.1) it was < 4.70; on A*6802, < 4.70.

As for RLIIGYVIGT [Peptide 9013.0140], the pIC50 against A*0203 is 6.20; at HLA-A*0201 (HLA-A2.1) it was 5.73; on A*6802, 4.84.

Regarding LLQQYCLYL [Peptide 1578.01], the pIC50 at A*0202 is 7.96; at A*0203, 7.77; on HLA-A*0201 (HLA-A2.1) it was 6.65.

Consider MLGVLVGVALI [Peptide 9013.0349], for which the pIC50 against A*0206 is 5.33; against A*0202, 6.36; against HLA-A*0201 (HLA-A2.1) it was 5.30; at A*6802, 5.06.

Regarding VLEGKEVLL [Peptide 9013.0019], the pIC50 is < 4.70 against A*0206, 7.74 against A*0202, 5.54 on HLA-A*0201 (HLA-A2.1) and < 4.70 against A*6802.

With KLITVSAEL [Peptide 9013.0084], the pIC50 against A*0202 is 8.48; against A*0203, 7.57; at HLA-A*0201 (HLA-A2.1) it was 7.15; against A*6802 it was < 4.70.

Consider KLTSLCVTL [Peptide 1537.03], for which the pIC50 on A*0202 was 7.54; on A*0203, 7.04; at HLA-A*0201 (HLA-A2.1) it was 7.04; against A*6802, < 4.70.

As for GVNLSLSCHAV [Peptide 9013.0311], the pIC50 against A*0202 is 7.20; on A*0203, 5.59; at HLA-A*0201 (HLA-A2.1), 5.68; on A*6802, 6.02.

Consider `CC[C@H](C)[C@H](NC(=O)[C@@H](NC(=O)[C@@H](NC(=O)[C@@H](NC(=O)[C@@H](NC(=O)[C@@H](NC(=O)[C@@H](N)CCCNC(=N)N)[C@@H](C)O)[C@@H](C)O)C(C)C)[C@@H](C)O)[C@@H](C)O)C(=O)N[C@H](C(=O)N[C@H](C(=O)N[C@@H](Cc1ccc(O)cc1)C(=O)N[C@H](C(=O)O)C(C)C)C(C)C)[C@@H](C)O` [Peptide 9013.0304], for which the pIC50 is 7.14 on A*0206, 8.02 against A*0202 and 9.74 against A*6802.

Regarding FLDAFKKFL [Peptide 1578.31], the pIC50 against A*0206 was 6.38; at A*0202, 7.60; at HLA-A*0201 (HLA-A2.1), 6.80; against A*6802, < 4.70.

For YACFVSNLAV [Peptide 9013.0248], the pIC50 at A*0206 is 7.15; against A*0202, 6.12; against HLA-A*0201 (HLA-A2.1), 5.86; at A*6802, 7.02.

As for GLMIGVLVGVA [Peptide 9013.0345], the pIC50 against A*0206 is 5.48; at A*0202 it was 7.41; at HLA-A*0201 (HLA-A2.1) it was 5.66; on A*6802, < 4.70.

With QQHTQVLFV [Peptide 9013.0102], the pIC50 against A*0202 is 5.85; against A*0203, 7.10; on HLA-A*0201 (HLA-A2.1), 5.68; at A*6802, < 4.70.

As for VAWDSVYYM [Peptide 1578.46], the pIC50 is 6.22 on A*0202, 5.88 at A*0203 and 5.29 against A*6802.

ALDGNDISV [Peptide 1578.33]: the pIC50 is 7.32 at A*0206, 7.39 on A*0202, 7.40 on HLA-A*0201 (HLA-A2.1) and < 4.70 against A*6802.

As for VQWAYDHDI [Peptide 86.0205], the pIC50 on A*0202 was 5.17; against A*0203, < 4.70; at HLA-A*0201 (HLA-A2.1), 5.16; on A*6802, < 4.70.

In the case of TTVTTITVYV [Peptide 9013.0192], the pIC50 against A*0202 was 7.68; against A*0203 it was 6.49; at HLA-A*0201 (HLA-A2.1) it was 5.98; against A*6802, 7.77.

In the case of WLNGQSLPV [Peptide 9013.0090], the figures for the pIC50 on A*0202 and against A*0203 were 8.07 and 8.19, respectively.

Turning to KLTQLCVTL [Peptide 1537.02], the pIC50 on A*0206 is 6.88; at A*0202, 8.57; on HLA-A*0201 (HLA-A2.1) it was 7.62; against A*6802, < 4.70.

Take TLESTPFNV [Peptide 9013.0012]: the pIC50 on A*0202 was 7.72; against A*0203, 6.66; at HLA-A*0201 (HLA-A2.1) it was 6.67; against A*6802, 6.62.

With RMLQQLLFT [Peptide 1525.17], the figures for the pIC50 against A*0202 and on A*0203 were 5.73 and 6.31, respectively.

As for SLACSWGMVV [Peptide 1578.02], the pIC50 at A*0202 was 7.66; on A*0203 it was 8.07; at HLA-A*0201 (HLA-A2.1), 6.09.

Consider ILNDTGFYTL [Peptide 9013.0150], for which the pIC50 against A*0202 is 8.68; on A*0203, 7.23; at HLA-A*0201 (HLA-A2.1), 6.82; against A*6802 it was 4.95.

As for ILQNDTGFYT [Peptide 9013.0147], the pIC50 against A*0206 is 4.95; on A*0202 it was 6.73; against HLA-A*0201 (HLA-A2.1), 6.04; at A*6802, < 4.70.

Consider LTIESTPFNVV [Peptide 9013.0267], for which the pIC50 is 7.11 against A*0206, 6.73 at A*0202, 5.96 on HLA-A*0201 (HLA-A2.1) and 6.91 at A*6802.

Consider VAWDSVYYV [Peptide 1593.57], for which the pIC50 against A*0206 was 8.48; on A*0202, 7.46; on HLA-A*0201 (HLA-A2.1), 8.36; against A*6802, 7.32.

Consider TTQDVSLEV [Peptide 1593.54], for which the negative logarithm of the IC50 (pIC50) at A*0206 was 6.17; on A*0202, 5.63; on HLA-A*0201 (HLA-A2.1) it was 5.87; against A*6802, 8.05.

As for VVWDSIYYI [Peptide 1578.53], the pIC50 on A*0206 was 7.96; against A*0202 it was 7.41; against HLA-A*0201 (HLA-A2.1), 7.89; against A*6802 it was 7.28.

With KLMSNLLSI [Peptide 1578.21], the pIC50 against A*0206 was 7.47; against A*0202, 8.57; against HLA-A*0201 (HLA-A2.1), 7.80; against A*6802, < 4.70.

As to YLHNRLVVFT [Peptide 86.0075], the pIC50 on A*0206 was 4.82; against A*0202, 6.92; on A*6802, 5.80.

For GLNLSLSCHAA [Peptide 9013.0312], the pIC50 against A*0206 was < 4.70; at A*0202 it was 7.33; on HLA-A*0201 (HLA-A2.1), 5.85; on A*6802 it was < 4.70.

RILQQPLFI [Peptide 1545.03]: the pIC50 against A*0206 is 6.06; against A*0202, 5.00; at HLA-A*0201 (HLA-A2.1) it was 6.85; on A*6802, < 4.70.

On to NLAEGKEVLLL [Peptide 9013.0271], for which the pIC50 at A*0206 is < 4.70; against A*0202, 7.74; at HLA-A*0201 (HLA-A2.1), 5.12; at A*6802, < 4.70.
